In article PMC6776562, “Inhibition of Rac1-dependent forgetting alleviates memory deficits in animal models of Alzheimer’s disease” (Protein & Cell, 2019):

Columns and labels:
Rac1 = Rac1 (Mus musculus, UniProt P63001); assay: Rac1 activity (Rac1-GTP/total Rac1) in hippocampal tissue by PAK-PBD pull-down and Western blot after drug administration; assay type: in vivo, APP/PS1 mice; settings: APP/PS1 mice (eight-month-old); oral CS7171 50 mg/kg, CS7170 50 mg/kg, JKF-034 40 mg/kg once per day
Protocol: We first assayed Rac1 activity in hippocampal tissues from AD patients and healthy age-matched, non-demented controls (Detailed information is provided in Table 1). The levels of the guanosine triphosphate (GTP)-bound active form of Rac1 were measured using the p21-binding domain (PBD) pull-down assay. The GTP-bound active form of Rac1 was pulled down through the interactive p21-activated kinase (PAK) fragment using PAK-PBD beads and measured using a Western blot assay (Fig. 1A), as described in previous studies (Shuai et al., [2010]; Liu et al., [2016]) from our laboratory and studies conducted by other research groups (Sander et al., [1998]; Barnes et al., [2008]). The total amount of Rac1 and actin were also evaluated using the Western blot analyses (See MATERIALS AND METHODS). […] Since there were no significant differences in total Rac1 levels between the experimental and control groups (See representative Western blot in all relevant figures), the ratio of Rac1-GTP to total Rac1 was taken as a measure of Rac1 activity. […] Consistent with this observation, Rac1 activity was also elevated in the hippocampus of APP/PS1 mice at different age (Fig. 1D). […] This increase was more pronounced in older flies (Fig. S1F).
Mice were treated with EHop-016 (10 mg/kg), CS7170 (50 mg/kg), CS7171 (50 mg/kg), and JKF-034 (40 mg/kg). These drugs were dissolved in saline (0.9% NaCl) containing 0.5% Tween-80 (Sigma P4780). Each mouse received 200 μL of the solution by intragastric administration once per day (administered at 9:00 am). The drug administration was started seven days before the beginning of the Morris water maze (MWM) task and was continued until the end of the assay. All control groups were fed with vehicle solution.
(§1) The hippocampal tissues from human subjects and mice were harvested and stored in a liquid nitrogen tank for biochemical assay. The tissues were homogenized in cold lysis buffer (Merck-Millipore, 20-168). The insoluble debris were removed after centrifugation at 13,000 rpm (for 10 min, at 4 °C). For GTP-bound Rac/Cdc42, lysates were incubated with GST-tagged PAK (p21-activated kinase)-PBD agarose beads (Cytoskeleton, PAK02) overnight at 4 °C. On the second day, the beads were washed three times with lysis buffer before subjecting them to SDS-PAGE (15%) and transferring them onto nitrocellulose membranes (Millipore, HATF00010). The membranes were incubated with primary antibodies (for Rac1: BD Transduction Laboratories, #610650, 1:2,000 dilution; for Cdc42, Santa Cruz Biotechnology, lot No. sc-8401, 1:500 dilution) overnight at 4 °C and with HRP-conjugated goat anti-mouse IgG (Cell Signaling Technology, #7076) for 1 h at room temperature. Intensities of the detected bands were analyzed using ImageJ software (National Institutes of Health). The total amount of Rac1 in the lysate was detected using a routine Western blot procedure. RhoA-GTP levels were measured by using the Rho-GTP monoclonal antibody (New East, lot No. 26904, Dilution: 1:1,000). Information regarding the other antibodies used is as follows: anti-RhoA (67B9), Cell Signaling, lot No. #2117, dilution: 1:1,000; anti-Actin, Clone C4, Millipore, lot No. #3018859, dilution: 1:2,000; anti-Amyloid 1-42 6E10, BioLegend, lot No. 803001, dilution: 1:1,000; anti-Phospho-PAK1 (Ser144)/PAK2 (Ser141), Cell Signaling, lot No. #2606, dilution: 1:1,000.

Cdc42 = Cdc42 activity (Cdc42-GTP) by Western blot after drug administration; assay type: in vivo; settings: 7-month-old APP/PS1 mice; two weeks of P.O administration
Protocol: as §1, with “[…] Data information: All values are expressed” for “Information regarding the other antibodies used is”, “mean r SEM.” for “follows: anti-RhoA (67B9), Cell Signaling, lot No. #2117, dilution: 1:1,000; anti-Actin, Clone C4, Millipore, lot No. #3018859, dilution: 1:2,000; anti-Amyloid 1-42 6E10, BioLegend, lot No. 803001, dilution: 1:1,000; anti-Phospho-PAK1 (Ser144)/PAK2 (Ser141), Cell Signaling, lot No. #2606, dilution: 1:1,000.”

[1] = In vitro metabolic stability in mouse liver microsomes; assay type: in vitro ADME
Protocol: Measurements of metabolic stability can be performed with liver microsomes, which are known to contain the major drug-metabolizing enzymes and UDP-glucuronosyltransferase (Baranczewski et al., [2006]). The in vitro metabolic stability levels of CS7171 and JKF-034 were measured using human, monkey, and mouse liver microsomes. The metabolic half-time (T1/2) and intrinsic clearance (Clint) were assayed using LC-MS analysis. Ketanserin is a potent, orally effective antagonist of endogenous serotonin. Its pharmacological profile is well studied (Brogden and Sorkin, [1990]). In this study, we used ketanserin as a control. If the T1/2 of the tested compound was 30–120 min, the compound was considered to show moderate metabolism in liver microsomes. If the T1/2 value was less than 30 min, the compound was considered to be susceptible to metabolism in liver microsomes.

Row | Compound | hippocampal Rac1 activity (Rac1-GTP/total Rac1) (Rac1) | Cdc42 activity (Cdc42) | Clint [1] | T1/2 [1] [min]
1 | O=C1NN(c2ccc(Cl)c(Cl)c2)C(=O)C1=Cc1ccc(O)c(N(O)O)c1 [CS7171] | inhibited hippocampal Rac1 activity | did not affect | 477.87 mL/min/kg | 11.42
2 | O=S(=O)(c1ccccc1)N1CCN(Cc2ccccc2)CC1 [JKF-034] | inhibited Rac1 activity | did not affect | 4,702.82 mL/min/kg | 1.16
